Experimental data published in patent US4863963A, “Novel cinnamoylamide derivatives” (Ono Pharmaceutical Co., Ltd., priority 1987, dated 1989).

These molecules were tested against 5α-reductase (assay: Inhibitory activity on 5α-reductase in vitro (conversion of [4-C^14]-testosterone to dihydrotestosterone)). Settings: male rat prostate enzyme, 60 mins at 37° C., pH 7.4; compounds of the present invention.
Format: biochemical
Method: Inhibitory activity on 5-reductase in vitro
The test was carried out with reference to the method of J. Shimazaki et al [See Endocrinol, Japon., 18, 179 (1971)).]
Male rat's prostate (4 g) was homogenized with its triple volume of 0.1M HEPES buffer (PH 7.4) including 0.25M cane sugar and was centrifuged at 3000 r.p.m. for 10 mins.
The precipitate was suspended into the buffer solution described above (10 ml), and the suspension was centrifuged at 3000 r.p.m for 5 mins. The resulting precipitate was suspended in the buffer solution(3 ml) described above and was used as a sauce of enzyme.
A reaction mixture (total volume 0.1 ml) of [4-C^14 ]-testosterone (1.5 n mol, 1.5×10^3 cpm), NADPH (0.5 μmol), enzyme solution (0.03 ml) described above and several kinds of concentration of the compounds in the present invention was incubated for 60 mins at 37° C. Enzyme reaction was quenched by addition of a mixture (0.4 ml) of chloroform and methanol (1:2), and the mixture was centrifuged at 2000 r.p.m for 3 mins. The supernatant (50 μl) was spotted on silica gel thin layer plate. The spot on the plate was developed with a mixture of chloroform, methanol and acetic acid (99.2:0. 6:0.2). Radioactivity of dihydrotestosteron generated on plate was measured by TLC scanner of radio-autography and inhibitory ratio was calculated.

Row | SMILES | IC50
1 | CCCCCOc1c(Cl)cc(/C(C)=C/C(=O)Nc2ccccc2OCCCC(=O)O)cc1Cl [Example 1, 4-[2-(3,5-dichloro-4-pentyloxy-β-methylcinnamoylamino)phenoxy]butanoic acid] | 0.09 µM
2 | CCCCCOc1c(OC)cc(/C(C)=C/C(=O)Nc2ccccc2OCCCC(=O)O)cc1OC [Example 1-1, 4-[2-(3,5-dimethoxy-4-pentyloxy-β-methylcinnomoylamino)phenoxyl] butanoic acid] | 1.6 µM
3 | CCCCCOc1cc(/C(C)=C/C(=O)Nc2ccccc2OCCCC(=O)O)cc(OCCCCC)c1OCCCCC [Example 1-2] | 1.8 µM
4 | CCCCCOc1c(C)cc(/C(C)=C/C(=O)Nc2ccccc2OCCCC(=O)O)cc1C [Example 1-3, 4-[2-(3,5-dimethyl-4-pentyloxy-β-methylcinnamoylamino)phenoxy] butanoic acid] | 2.1 µM
5 | COc1c(C(C)(C)C)cc(/C(C)=C/C(=O)Nc2ccccc2OCCCC(=O)O)cc1C(C)(C)C [Example 1-4, 4-[2-(3,5-di-tert-butyl-methoxy-β-methylcinnamoylamino)phenoxy] butanoic acid] | 1 µM
6 | CCCCCOc1ccc(/C(C)=C/C(=O)Nc2ccccc2OCCCC(=O)O)c(Cl)c1Cl [Example 1-5, 4-[2-(2,3-dichloro-4-pentyloxy-β-methylcinnomoylamino)phenoxy] butanoic acid] | 5.6 µM
7 | CCCCOc1c(Cl)cc(/C(C)=C/C(=O)Nc2ccccc2OCCCC(=O)O)cc1Cl [Example 1-6, 4-[2-(3,5-dichloro-4-butoxy-β-methylcinnamoylamino)phenyoxy] butanoic acid] | 1.6 µM
8 | CCCOc1cc(/C(C)=C/C(=O)Nc2ccccc2OCCCC(=O)O)cc(OCCC)c1OCCC [Example 1-7, 4-[2-(3,4,5-tripropoxy-β-methylcinnamoylamino)phenoxy] butanoic acid] | 3.3 µM
9 | CCCCOc1cc(/C(C)=C/C(=O)Nc2ccccc2OCCCC(=O)O)cc(OCCCC)c1OCCCC [Example 1-8] | 1.7 µM
10 | CCOc1cc(/C(C)=C/C(=O)Nc2ccccc2OCCCC(=O)O)cc(OCC)c1OCC [Example 1-9, 4-[2-(3,4,5-triethoxy-β-methylcinnamoylamino)phenoxy] butanoic acid] | 9.7 µM
11 | C/C(=C\C(=O)Nc1ccccc1OCCCC(=O)O)c1ccc(CC(C)C)cc1 [Example 1-10, 4-[2-(4-isobutyl-β-methylcinnamoylamino)phenoxy] butanoic acid] | 0.11 µM
12 | CCCCc1ccc(/C(C)=C/C(=O)Nc2ccccc2OCCCC(=O)O)cc1 [Example 1-11, 4-[2-(4-butyl-β-methylcinnomoylamino)phenoxy] butanoic acid] | 0.2 µM
13 | CCCc1ccc(/C(C)=C/C(=O)Nc2ccccc2OCCCC(=O)O)cc1 [Example 1-12, 4-[2-(4-propyl-β-methylcinnamoylamino)phenoxy] utanoic acid] | 0.26 µM
14 | CCCCOc1ccc(/C(C)=C/C(=O)Nc2ccccc2OCCCC(=O)O)cc1 [Example 1-13, 4-[2-(4-butoxy-β-methylcinnamoylamino)phenoxy] utanoic acid] | 0.38 µM
15 | CCC(C)c1ccc(/C(C)=C/C(=O)Nc2ccccc2OCCCC(=O)O)cc1 (stereo not drawn) [Example 1-14, 4-[2-(4-sec-butyl-β-methylcinnomoylamino)phenoxy] butanoic acid] | 0.28 µM
16 | CCCCCOc1cc(/C(C)=C/C(=O)Nc2ccccc2OCCCC(=O)O)c([N+](=O)[O-])cc1OCCCCC [Example 1-15, 4-[2-(2-nitro-4,5-dipentyloxy-β-methylcinnomoylamino)phenoxy] butanoic acid] | 2.2 µM
17 | CCCCCOc1cc(/C=C(\C)C(=O)Nc2ccccc2OCCCC(=O)O)cc(OCCCCC)c1OCCCCC [Example 1-16] | 0.53 µM
